Calls of active or inactive are those of the source. The calls are words filed in the database; no cut-off is given here.
Legend:
[1] = test system: HCT-116; assay: Antiproliferative activity against human HCT116 cells xenografted in BALB/c mouse at 10 mg/kg, administered every other day for 3 weeks by Ki67-staining based assay; type: functional, organism-based
[2] = Ratio of IC50 for human A2780DDP cells to IC50 for human A2780 cells after 72 hrs by MTS assay; type: functional
[3] = test system: A-375; assay: Antitumor activity against human A375 cells xenografted in nude BALB/c mouse assessed as tumor growth inhibition at 7.5 mg/kg, ip administered every other day for 23 days relative to control; type: functional; conditions: A-375, ip, 552 h, read-out: TGI
[4] = Ratio of IC50 for human A2780/TAX cells to IC50 for human A2780 cells after 72 hrs by MTS assay; type: functional
[5] = test system: HCT-116; assay: Antiproliferative activity against human HCT116 cells assessed as inhibition of colony formation at 0.66 to 2.63 uM after 14 days by crystal violet-staining based assay; type: functional, cell-based
[6] = test system: HCT-116; assay: Cytotoxicity against human HCT116 cells assessed as cell growth inhibition after 48 hrs by sulforhodamine B assay; type: functional, cell-based; conditions: HCT-116, 48 h
[7] = test system: HCT-116; assay: Antitumor activity against human HCT116 cells xenografted in nude BALB/c mouse assessed as tumor growth inhibition at 20 mg/kg, ip administered twice a week for 3 weeks relative to control; type: functional; conditions: HCT-116, ip, 504 h, read-out: TGI
[8] = test system: HeLa; assay: Antitumor activity against human HeLa cells xenografted in nude BALB/c mouse assessed as suppression of excised tumor size at 10 mg/kg, ip administered every other day for 21 days and observed for 6 days before sacrifice relative to control; type: functional
[9] = test system: HCT-116; assay: Antitumor activity against human HCT116 cells xenografted in nude BALB/c mouse assessed as suppression of excised tumor size at 30 mg/kg, ip administered twice a week for 3 weeks relative to control; type: functional
[10] = test system: HCT-116; assay: Antitumor activity against human HCT116 cells xenografted in nude BALB/c mouse assessed as tumor growth inhibition at 30 mg/kg, ip administered twice a week for 3 weeks relative to control; type: functional; conditions: HCT-116, ip, 504 h, read-out: TGI
[11] = test system: HeLa; assay: Antitumor activity against human HeLa cells xenografted in nude BALB/c mouse assessed as tumor growth inhibition at 10 mg/kg, ip administered every other day for 21 days and observed for 6 days before sacrifice relative to control; type: functional; conditions: read-out: TGI
[12] = test system: Mus musculus; assay: Induction of cellular senescence in BALB/c mouse xenografted with human HCT116 cells assessed as up-regulation of p21 protein expression at 10 mg/kg, administered every other day for 3 weeks by immunohistochemical analysis; type: functional, organism-based
[13] = test system: HCT-116; assay: Antitumor activity against human HCT116 cells xenografted in nude BALB/c mouse assessed as suppression of excised tumor size at 20 mg/kg, ip administered twice a week for 3 weeks relative to control; type: functional
[14] = Toxicity in BALB/c mouse assessed as mortality at 10 mg/kg, ip dosed daily for 28 days; type: organism-based; conditions: in vivo, 672 h
[15] = test system: HCT-116; assay: Induction of cellular senescence in human HCT116 cells assessed as up-regulation of p21 protein expression at 0.1 to 0.4 ug/ml after 48 hrs by Western blot analysis; type: functional, cell-based
[16] = test system: HCT-116; assay: Induction of cellular senescence in human HCT116 cells at 1.32 uM after 48 hrs by SA-beta-gal-staining based assay; type: functional, cell-based
[17] = test system: A-375; assay: Cytotoxicity against human A375 cells assessed as cell growth inhibition after 48 hrs by sulforhodamine B assay; type: functional, cell-based; conditions: A-375, 48 h
[18] = Toxicity in nude BALB/c mouse xenografted with human HCT116 cells assessed as body weight loss at 7.5 mg/kg, ip measured on day 10 and 11; type: organism-based; conditions: in vivo
[19] = test system: HCT-116; assay: Induction of apoptosis in human HCT116 cells assessed as viable cells at 1.32 uM after 48 hrs by annexin V/propidium iodide-double staining based flow cytometry (reference value: 88.3%); type: functional; conditions: HCT-116, 48 h, read-out: Activity
[20] = test system: A549; assay: Cytotoxicity against human A549 cells assessed as cell growth inhibition after 48 hrs by sulforhodamine B assay; type: functional, cell-based; conditions: A549, 48 h
[21] = test system: A-375; assay: Antitumor activity against human A375 cells xenografted in nude BALB/c mouse assessed as suppression of tumor volume at 7.5 mg/kg, ip administered every other day for 23 days relative to control; type: functional; conditions: A-375, ip, 552 h, read-out: TGI
[22] = test system: HCT-116; assay: Induction of apoptosis in human HCT116 cells assessed as early apoptotic cells at 1.32 uM after 48 hrs by annexin V/propidium iodide-double staining based flow cytometry (reference value: 4.8%); type: functional
[23] = test system: HCT-116; assay: Induction cell cycle arrest in human HCT116 cells assessed as reduction in accumulation in S phase at 1.6 uM after 12 hrs by propidium iodide-staining based flow cytometry; type: functional
[24] = test system: HCT-116; assay: Induction of apoptosis in human HCT116 cells assessed as necrotic cells at 1.32 uM after 48 hrs by annexin V/propidium iodide-double staining based flow cytometry (reference value: […]); type: functional
[25] = Ratio of IC50 for human HCT116/VM46 cells to IC50 for human HCT116 cells after 72 hrs by MTS assay; type: functional
[26] = test system: A2780; assay: Growth inhibition human A2780 cells after 72 hrs by MTS assay; type: functional, cell-based; conditions: A2780, 72 h
[27] = test system: HCT-116; assay: Induction of apoptosis in human HCT116 cells assessed as late apoptotic cells at 1.32 uM after 48 hrs by annexin V/propidium iodide-double staining based flow cytometry (reference value: 4.6%); type: functional
[28] = test system: Panel NCI-60 (60 carcinoma cell lines); assay: Growth inhibition human NCI60 cells after 48 hrs by sulforhodamine B assay; type: functional
[29] = Toxicity in nude BALB/c mouse xenografted with human HCT116 cells assessed as body weight loss at 20 to 30 mg/kg, ip administered twice a week for 3 weeks; type: organism-based; conditions: in vivo, 504 h
[30] = test system: Mus musculus; assay: Induction of cellular senescence in BALB/c mouse xenografted with human HCT116 cells assessed as up-regulation of p16 protein expression at 10 mg/kg, administered every other day for 3 weeks by immunohistochemical analysis; type: functional, organism-based
[31] = test system: HCT-116; assay: Growth inhibition human HCT116 cells after 72 hrs by MTS assay; type: functional, cell-based; conditions: HCT-116, 72 h
[32] = test system: HCT-116; assay: Antitumor activity against human HCT116 cells xenografted in nude BALB/c mouse assessed as tumor growth inhibition at 7.5 mg/kg, ip administered daily for 21 days relative to control; type: functional; conditions: HCT-116, ip, 504 h, read-out: TGI
[33] = Ratio of IC50 for human HCT116/VP35 cells to IC50 for human HCT116 cells after 72 hrs by MTS assay; type: functional
[34] = test system: HCT-116; assay: Induction of cellular senescence in human HCT116 cells assessed as up-regulation of p21 protein expression at 1.32 uM after 48 hrs in presence of p21 siRNA by SA-beta-gal-staining based Western blot analysis; type: functional, cell-based
[35] = test system: Mus musculus; assay: Effect on p27 protein expression in BALB/c mouse xenografted with human HCT116 cells at 10 mg/kg, administered every other day for 3 weeks by immunohistochemical analysis; type: functional, organism-based
[36] = test system: HCT-116; assay: Cytotoxicity against human HCT116 cells assessed as cell growth inhibition after 24 hrs by sulforhodamine B assay; type: functional, cell-based; conditions: HCT-116, 24 h
[37] = test system: HT-29; assay: Growth inhibition human HT-29 cells after 72 hrs by MTS assay; type: functional, cell-based
[38] = test system: HCT-116; assay: Antitumor activity against human HCT116 cells xenografted in nude BALB/c mouse assessed as reduction in volume of growing subcutaneous tumor at 20 to 30 mg/kg, ip administered twice a week for 3 weeks; type: functional, organism-based
[39] = test system: HCT-116; assay: Induction cell cycle arrest in human HCT116 cells assessed as accumulation in G1 phase at 1.6 uM after 12 hrs by propidium iodide-staining based flow cytometry; type: functional
[40] = test system: HCT-116; assay: Induction cell cycle arrest in human HCT116 cells assessed as accumulation in S phase at 1.6 uM after 24 hrs by propidium iodide-staining based flow cytometry; type: functional

CC(C)=CCC/C(C)=C/[C@H]1OC(=O)C[C@]12C[C@H](O)C=CC2=O
Activity [1]: Active
Ratio IC50 [2]: 1
inhibition in vivo at 7.5 mg/kg [3]: 12.8%
Ratio IC50 [4]: 0.8
Activity [5]: Active
IC50 [6]: 2 to 2.61 µM
inhibition in vivo at 20 mg/kg [7]: 68.7%
Activity [8]: 31.5%
Activity [9]: 68.7%
inhibition in vivo at 30 mg/kg [10]: 72.7%
inhibition in vivo at 10 mg/kg [11]: 30%
Activity [12]: Active
Activity [13]: 72.7%
Activity [14]: Non-Toxic
Activity [15]: Active
Activity [16]: Active
IC50 [17]: 1.5 µM
Activity [18]: Toxic
viability at 1.32 µM [19]: 88.2%
IC50 [20]: 2.45 µM
inhibition in vivo at 7.5 mg/kg [21]: 20.6%
Activity [22]: 4.4%
Activity [23]: inactive
Activity [24]: 2.5%
Ratio IC50 [25]: 0.9
IC50 [26]: 1.23 µM
Activity [27]: 4.9%
GI50 [28]: 0.03 to 4.79 µM
Activity [29]: 1 g
Activity [30]: Active
IC50 [31]: 1.52 µM
inhibition in vivo at 7.5 mg/kg [32]: 29.9%
Ratio IC50 [33]: 1.1
Activity [34]: inactive
Activity [35]: inactive
IC50 [36]: 3.67 µM
growth inhibition (GI) [37]: Active
Activity [38]: Active
Activity [39]: Active
Activity [40]: inactive

— ChEMBL document CHEMBL4316583, “In Vitro and in Vivo Antitumor Effects of Plant-Derived Miliusanes and Their Induction of Cellular Senescence” (J Med Chem, 2019)
